In PubChem BioAssay (NCI):
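Dose response: 5 concentrations. Exposure: 48 h. Format: 96-well plates. Endpoint: linear interpolation; highest concentration if not reached. Here, GI50 denotes the concentration required for 50% inhibition of growth. TGI denotes the concentration required for complete inhibition of growth.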

Legend:
Test in all cases: DTP human tumour cell line panel, 48 h
[1] = tested on: SN12C renal
[2] = tested on: SR leukemia
[3] = tested on: NCI-H226 lung
[4] = tested on: A498 renal
[5] = tested on: HOP-92 NSCLC
[6] = tested on: SK-MEL-2 melanoma
[7] = tested on: CAKI-1 renal
[8] = tested on: OVCAR-4 ovarian
[9] = tested on: UACC-62 melanoma
[10] = tested on: MCF7 breast
[11] = tested on: K-562 leukemia
[12] = tested on: OVCAR-3 ovarian
[13] = tested on: NCI-H522 lung
[14] = tested on: SNB-75 CNS
[15] = tested on: SNB-19 CNS
[16] = tested on: UO-31 renal
[17] = tested on: 786-0 renal
[18] = tested on: HL-60(TB) leukemia
[19] = tested on: HT29 colon
[20] = tested on: HCC-2998 colon
[21] = tested on: COLO 205 colon
[22] = tested on: HOP-62 NSCLC
[23] = tested on: NCI/ADR-RES ovarian
[24] = tested on: ACHN renal
[25] = tested on: DU-145 prostate
[26] = tested on: MOLT-4 leukemia
[27] = tested on: TK-10 renal
[28] = tested on: MALME-3M melanoma
[29] = tested on: OVCAR-5 ovarian

## N#Cc1c(-c2ccc(Cl)cc2)cc(-c2cc(O)ccc2O)nc1N
[1]
  GI50: 1.17 µM
  TGI: 5.63 µM
[2]
  GI50: 0.605 µM
  TGI: > 100 µM
[3]
  GI50: 2.54 µM
  TGI: 9.87 µM
[4]
  GI50: 1.41 µM
  TGI: 6.14 µM
[5]
  GI50: 2.39 µM
  TGI: 10.8 µM
[6]
  GI50: 2.6 µM
  TGI: 9.16 µM
[7]
  GI50: 2.98 µM
  TGI: 19.1 µM
[8]
  GI50: 0.576 µM
  TGI: 2.2 µM
[9]
  GI50: 1.45 µM
  TGI: 3.99 µM
[10]
  GI50: 0.566 µM
  TGI: > 32.8 µM
[11]
  GI50: 0.402 µM
  TGI: > 100 µM
[12]
  GI50: 0.472 µM
  TGI: 1.51 µM
[13]
  GI50: 0.606 µM
  TGI: 2.72 µM
[14]
  GI50: 0.914 µM
  TGI: 4.04 µM
[15]
  GI50: 1.29 µM
  TGI: > 45.3 µM
[16]
  GI50: 5.12 µM
  TGI: 23.6 µM
[17]
  GI50: 2.06 µM
  TGI: 6.49 µM
[18]
  GI50: 7.64 µM
  TGI: > 87.9 µM
[19]
  GI50: 11.7 µM
  TGI: > 53.3 µM
[20]
  GI50: 1.17 µM
  TGI: 3.46 µM
[21]
  GI50: 22.4 µM
  TGI: > 100 µM
[22]
  GI50: 0.908 µM
  TGI: 3.5 µM
[23]
  GI50: 8.8 µM
  TGI: > 100 µM
[24]
  GI50: 1.89 µM
  TGI: 12.2 µM
[25]
  GI50: 1.25 µM
  TGI: 10.5 µM
[26]
  GI50: 0.666 µM
  TGI: 5.02 µM
[27]
  GI50: 4.08 µM
  TGI: 32.8 µM
[28]
  GI50: 1.54 µM
  TGI: 4.27 µM
[29]
  GI50: 5.07 µM
  TGI: 25.7 µM
